From article PMC9229798, “Antioxidant Activity and Cytotoxicity of Aromatic Oligosulfides” (Molecules, 2022)
Blank lines part the entries; values can stand above or below the compound they belong to.

Key:
[1] = Fe2+ chelating activity; read-out: FIC, IC50 (EDTA activity); cited from earlier work
A-549 = assay: MTT assay; format: cell-based, human
Method: (§1) The antiproliferative activity of aromatic oligosulfides 1–6 was determined against human cell lines, including colon carcinoma HCT-116, breast adenocarcinoma MCF-7, lung adenocarcinoma A-549, colorectal carcinoma SW-480, and non-tumourigenic WI-38, using the MTT assay (Table 4). […] However, some selectivity for cancer cells was evident and the IC50 values for non-tumourigenic cells were slightly higher for compounds 1 and 2.
(§2) Cell survival was determined by the MTT [3-(4,5-[…])-2,5-diphenyl tetrazolium bromide] assay by Niks method with small modifications. HCT-116 (colon carcinoma), MCF-7 (breast adenocarcinoma), A-549 (lung adenocarcinoma) and SW-480 (colorectal carcinoma) human cancer cell lines and WI-38 (cell line composed of fibroblasts) were cultured in DMEM (PanEco, Moscow, Russia) with Glutamin (PanEco, Moscow, Russia) and antibiotics (PanEco, Moscow, Russia) in CO2 (5%) at 37 °C. The compounds were dissolved (20 mM) in DMSO and then added to the cell culture medium at the required concentration with a maximum DMSO content of 0.5 v/v%. At these concentrations, DMSO had no effect on cell viability, as was shown in the control experiments. Cells were cultured in 96-well plates (7000 cells/well) and treated with various concentrations (from […]) of the test compounds as well as doxorubicin at 37 °C for 72 h. Cell viability was determined using the MTT assay, which quantified dehydrogenase activity. Then, the cells were incubated at 37 °C for 50 min with a solution of MTT ([…], 5 mg × mL^−1) (Sigma-Aldrich, St. Louis, MO, USA). The supernatant was discarded, and cells were dissolved in DMSO ([…]). The optical density of the solution was measured at 570 nm with use of a multiwall-plate reader (Anthos Zenyth 2000rt, Biochrom, Cambridge, UK), and the percentage of surviving cells was calculated from the absorbance of untreated cells. Each experiment was repeated at least three times, and each concentration was tested in at least three replicates. Data were presented as a graph of the percentage of surviving cells versus the concentration of the test substances. The meanings of 50% inhibition concentration (IC50) with standard deviation were calculated using GraphPad Prism Version 5.03 for Windows (GraphPad Software, San Diego, CA, USA).

HCT-116 [2] = assay: MTT assay; format: cell-based, human
Method: as §1, §2

MCF-7 = assay: MTT assay; format: cell-based, human
Method: as §1, §2

SW-480 = assay: MTT assay; format: cell-based, human
Method: as §1, §2

HCT-116 [3] = assay: Annexin V/Dead Cell assay; format: cell-based, human; settings: HCT-116, 2 × IC50, 24 h
Text: Apoptosis or programmed cell death is an important and active regulatory pathway of cell growth and proliferation. Cells respond to specific induction signals by initiating intracellular processes that result in characteristic physiological changes. Among these are externalization of phosphatidylserine (PS) to the cell surface, cleavage and degradation of specific cellular proteins, compaction and fragmentation of nuclear chromatin, and loss of membrane integrity. Phosphatidylserine (PS) is normally located in the inner part of the cell membrane. In the initial stage of apoptosis, the PS residues which translocated to the extracellular are detected by Annexin V, which is a calcium-dependent phospholipid-binding protein with a high affinity for PS. Annexin V flow cytometric assay was used to evaluate the compounds’ ability to induce apoptosis and influence on cell death. HCT-116 colon carcinoma and A-549 lung adenocarcinoma cells were treated by disulfides 2 and 3.
HCT-116 (colon carcinoma) and A-549 (lung carcinoma) cells (1 × 10^6) were seeded in a six-well plate and were incubated for 24 h. […] After incubation, the cells were harvested by trypsinization, precipitated by centrifugation (3000 rpm), washed with PBS, recentrifuged, and the buffer was removed. DMEM was added to achieve a cell concentration of 400–1000 cells/µL. The Muse Annexin V & Dead Cell Kit reagent (100 µL) was added to the cells and […] for 20 min at room temperature in the dark. The results were recorded on a Muse Cell Analyzer flow cytometer (Merck, Rahway, NJ, USA).

Structure (SMILES): O=C([O-])CN(CCN(CC(=O)[O-])CC(=O)O)CC(=O)O.[Na+].[Na+] [EDTA, reference compound]
IC50 [1]: 380 ± 30 µM

Structure (SMILES): N.N.[Cl][Pt][Cl] [cisplatin, reference compound]
IC50 (A-549; 72 h): 20.1 ± 5.6 µM
IC50 (HCT-116 [2]; 72 h): 9.1 ± 2.3 µM
IC50 (MCF-7; 72 h): > 30 µM
IC50 (SW-480; 72 h): 17.6 ± 5.4 µM

IC50 (A-549; Homo sapiens, A549, 72 h): 0.24 ± 0.02 µM
IC50 (HCT-116 [2]; Homo sapiens, HCT-116, 72 h): 0.65 ± 0.05 µM
IC50 (MCF-7; Homo sapiens, MCF7, 72 h): 0.28 ± 0.03 µM
IC50 (SW-480; Homo sapiens, SW480, 72 h): 0.45 ± 0.06 µM
Structure (SMILES): COc1cccc2c1C(=O)c1c(O)c3c(c(O)c1C2=O)C[C@@](O)(C(=O)CO)C[C@@H]3O[C@H]1C[C@H](N)[C@H](O)[C@H](C)O1 [doxorubicine, doxorubicin, reference compound]
total apoptotic cells (HCT-116 [3]): 17.9%
